Test results taken from ChEMBL document CHEMBL5033993, “Design, Synthesis, and Evaluation of o-(Biphenyl-3-ylmethoxy)nitrophenyl Derivatives as PD-1/PD-L1 Inhibitors with Potent Anticancer Efficacy In Vivo” (J Med Chem, 2021).
Activity calls are given as the source filed them. No cut-off for these calls is given here.

Target: Programmed cell death protein 1/Programmed cell death 1 ligand 1 (Homo sapiens, UniProt Q15116+Q9NZQ7)
Experiment: Inhibition of human PD-1/PD-L1 interaction assessed as disruption of PD-1/PD-L1 complex incubated for 2 hrs by Tag-1 Eu3+ and anti-Tag2-XL665 based HTRF assay
Format: protein-complex assay
Details: not given

Chain of Programmed cell death protein 1/Programmed cell death 1 ligand 1 (Q15116 whole entry): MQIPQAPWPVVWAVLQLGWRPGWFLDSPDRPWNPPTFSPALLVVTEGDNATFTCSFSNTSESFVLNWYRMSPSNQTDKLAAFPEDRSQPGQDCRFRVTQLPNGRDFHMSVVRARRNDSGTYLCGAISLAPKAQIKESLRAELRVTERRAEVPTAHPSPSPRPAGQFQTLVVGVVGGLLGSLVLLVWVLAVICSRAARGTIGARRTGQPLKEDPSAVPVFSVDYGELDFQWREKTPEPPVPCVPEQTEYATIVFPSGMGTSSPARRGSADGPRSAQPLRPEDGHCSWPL
Chain of Programmed cell death protein 1/Programmed cell death 1 ligand 1 (Q9NZQ7 whole entry): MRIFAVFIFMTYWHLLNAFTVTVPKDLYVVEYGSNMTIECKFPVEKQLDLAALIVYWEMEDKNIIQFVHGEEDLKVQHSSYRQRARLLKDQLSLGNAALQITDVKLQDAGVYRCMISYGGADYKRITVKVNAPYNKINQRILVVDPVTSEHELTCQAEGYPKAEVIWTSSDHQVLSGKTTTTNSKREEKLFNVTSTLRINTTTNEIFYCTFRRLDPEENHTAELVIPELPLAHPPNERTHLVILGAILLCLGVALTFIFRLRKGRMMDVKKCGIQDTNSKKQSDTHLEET

Row | Structure (SMILES) | IC50 [nM]
1 | Cc1c(COc2ccc(CN(C)CC(=O)O)cc2[N+](=O)[O-])cccc1-c1ccccc1 | 20.9
2 | Cc1c(COc2cc(OCc3cccc(C#N)c3)c(CN(C)CC(=O)O)cc2[N+](=O)[O-])cccc1-c1ccccc1 | 7.44
3 | Cc1c(COc2cc(OCc3ccnc(C#N)c3)c(CN[C@@H](CO)C(=O)O)cc2[N+](=O)[O-])cccc1-c1ccccc1 | 9.33
4 | CC(=O)NCCNC(=O)[C@@H]1CCCN1Cc1ccc(OCc2cccc(-c3ccccc3)c2C)c([N+](=O)[O-])c1 | 56.4
5 | Cc1c(COc2cc(OCc3cccc(C#N)c3)c(CN[C@@H](CO)C(=O)O)cc2[N+](=O)[O-])cccc1-c1ccccc1 | 13
6 | Cc1c(COc2ccc(CN3CCCC[C@H]3C(=O)N[C@@H](C)C(=O)O)cc2[N+](=O)[O-])cccc1-c1ccccc1 | 12.7
7 | Cc1c(COc2ccc(CN3CCCC[C@H]3C(=O)N3CCC[C@H]3C(=O)O)cc2[N+](=O)[O-])cccc1-c1ccccc1 | 14.8
8 | Cc1c(COc2cc(OCc3cccc(C#N)c3)c(CNC(CO)CO)cc2[N+](=O)[O-])cccc1-c1ccccc1 | 7.8
9 | Cc1c(COc2ccc(CN3CCC[C@H]3C(=O)NCCO)cc2[N+](=O)[O-])cccc1-c1ccccc1 | 55.7
10 | Cc1c(COc2cc(OCc3cccnc3)c(CN[C@H](C(=O)O)[C@@H](C)O)cc2[N+](=O)[O-])cccc1-c1ccccc1 | 15.5
11 | Cc1c(COc2cc(OCc3cccc(C#N)c3)c(CN3CCC[C@H]3C(=O)O)cc2[N+](=O)[O-])cccc1-c1ccccc1 | 22.7
12 | Cc1c(COc2cc(OCc3ccnc(C#N)c3)c(CN[C@H](C(=O)O)[C@@H](C)O)cc2[N+](=O)[O-])cccc1-c1ccccc1 | 10.2
13 | Cc1c(COc2cc(OCc3cccc(C#N)c3)c(CN3CCCC[C@H]3C(=O)N[C@@H](CO)C(=O)O)cc2[N+](=O)[O-])cccc1-c1ccccc1 | 8.01
14 | Cc1c(COc2ccc(CN[C@@H](CO)C(=O)O)cc2[N+](=O)[O-])cccc1-c1ccccc1 | 27.7
15 | Cc1c(COc2cc(OCc3ccnc(C#N)c3)c(CN3CCCC[C@H]3C(=O)O)cc2[N+](=O)[O-])cccc1-c1ccccc1 | 10.2
16 | Cc1c(COc2ccc(CNCCN(C)C)cc2[N+](=O)[O-])cccc1-c1ccccc1 | 37.7
17 | C[C@@H](O)[C@H](NCc1ccc(OCc2cccc(-c3ccccc3)c2Br)c([N+](=O)[O-])c1)C(=O)O | 353
18 | Cc1c(COc2ccc(CNCc3ccoc3)cc2[N+](=O)[O-])cccc1-c1ccccc1 | 87.4
19 | Cc1c(COc2cc(OCc3cccnc3)c(CN3CCCC[C@H]3C(=O)O)cc2[N+](=O)[O-])cccc1-c1ccccc1 | 8.75
20 | Cc1c(COc2ccc(CN3CCC[C@H]3C(=O)O)cc2[N+](=O)[O-])cccc1-c1ccccc1 | 45.2
21 | Cc1c(COc2ccc(CN3CCC[C@H]3C(=O)N[C@@H](C)CO)cc2[N+](=O)[O-])cccc1-c1ccccc1 | 61.8
22 | Cc1c(COc2ccc(CN3CCCC[C@H]3C(=O)N[C@@H](CO)C(=O)O)cc2[N+](=O)[O-])cccc1-c1ccccc1 | 12.4
23 | Cc1c(COc2ccc(CN(CCO)CCO)cc2[N+](=O)[O-])cccc1-c1ccccc1 | 21.4
24 | Cc1c(COc2ccc(CN3CCC[C@H]3C(=O)NCC(C)(C)O)cc2[N+](=O)[O-])cccc1-c1ccccc1 | 71.2

Row | Structure (SMILES) | IC50 [nM]
25 | Cc1c(COc2ccc(CN3CCC[C@H]3C(=O)N[C@H](C(=O)O)[C@@H](C)O)cc2[N+](=O)[O-])cccc1-c1ccccc1 | 55.6
26 | Cc1c(COc2ccc(CNC(C)(CO)CO)cc2[N+](=O)[O-])cccc1-c1ccccc1 | 92.1
27 | Cc1c(COc2ccc(CN3CCC[C@H]3C(=O)N[C@@H](CO)C(=O)O)cc2[N+](=O)[O-])cccc1-c1ccccc1 | 73.2
28 | Cc1c(COc2cc(OCc3cccc(C#N)c3)c(CNCCO)cc2[N+](=O)[O-])cccc1-c1ccccc1 | 3.59
29 | Cc1c(COc2ccc(CN[C@@H](CO)C(=O)O)c(OCc3cccc(C#N)c3)c2)cccc1-c1ccccc1 | 30.2
30 | CSCC[C@H](NCc1ccc(OCc2cccc(-c3ccccc3)c2C)c([N+](=O)[O-])c1)C(=O)O | 17.8
31 | Cc1c(COc2ccc(CN[C@H](C(=O)O)[C@@H](C)O)cc2[N+](=O)[O-])cccc1-c1ccccc1 | 61
32 | Cc1c(COc2ccc(CN3CCCC[C@H]3C(=O)O)cc2[N+](=O)[O-])cccc1-c1ccccc1 | 8.78
33 | Cc1c(COc2cc(OCc3cccc(C#N)c3)c(CN3CCCC[C@H]3C(=O)N3CCC[C@H]3C(=O)O)cc2[N+](=O)[O-])cccc1-c1ccccc1 | 4.31
34 | Cc1c(COc2cc(OCc3cccc(C#N)c3)c(CN3CCCC[C@H]3C(=O)O)cc2[N+](=O)[O-])cccc1-c1ccccc1 | 5.65
35 | Cc1c(COc2ccc(CNCC(C)(C)O)cc2[N+](=O)[O-])cccc1-c1ccccc1 | 46.7
36 | Cc1c(COc2ccc(CNCCC(=O)O)cc2[N+](=O)[O-])cccc1-c1ccccc1 | 39.5
37 | Cc1c(COc2ccc(CNCCO)cc2[N+](=O)[O-])cccc1-c1ccccc1 | 11.8
38 | CCC(CO)(CO)NC(=O)[C@@H]1CCCN1Cc1ccc(OCc2cccc(-c3ccccc3)c2C)c([N+](=O)[O-])c1 | 82.3
39 | CC(=O)NCCNCc1cc([N+](=O)[O-])c(OCc2cccc(-c3ccccc3)c2C)cc1OCc1cccc(C#N)c1 | 8.11
40 | Cc1c(COc2ccc(CNC(CO)CO)cc2[N+](=O)[O-])cccc1-c1ccccc1 | 8.91
41 | CC(=O)NCCNCc1ccc(OCc2cccc(-c3ccccc3)c2C)c([N+](=O)[O-])c1 | 13.1
42 | Cc1c(COc2ccc(CNCCCNC(CO)CO)cc2[N+](=O)[O-])cccc1-c1ccccc1 | 28.7
43 | Cc1c(COc2ccc(CN3CCC[C@H]3C(=O)N(C)CC(O)CO)cc2[N+](=O)[O-])cccc1-c1ccccc1 (stereo partly specified) | 9.98
44 | Cc1c(COc2ccc(CN3CCCC[C@H]3C(=O)N[C@H](C(=O)O)[C@@H](C)O)cc2[N+](=O)[O-])cccc1-c1ccccc1 | 26.7
45 | Cc1c(COc2ccc(CN3CCC[C@H]3C(=O)NC(C)(CO)CO)cc2[N+](=O)[O-])cccc1-c1ccccc1 | 49.4
46 | Cc1c(COc2cc(OCc3cccnc3)c(CN[C@@H](CO)C(=O)O)cc2[N+](=O)[O-])cccc1-c1ccccc1 | 17.9
47 | Cc1c(COc2cc(OCc3cccc(C#N)c3)c(CN3CCCC[C@H]3C(=O)NCC(C)(C)O)cc2[N+](=O)[O-])cccc1-c1ccccc1 | 4.77
48 | Cc1c(COc2ccc(CN3CCCC[C@H]3C(=O)NCC(C)(C)O)cc2[N+](=O)[O-])cccc1-c1ccccc1 | 12.1

Tested on: Mus musculus
Experiment: Upregulation of IFNgamma protein expression in C57BL6 mouse serum allografted with mouse lewis lung carcinoma cells at 5 mg/kg, ig for 21 days by ELISA
Format: functional, organism-based
Details: time 21.0 day

Row | Structure (SMILES) | Activity
49 | Cc1c(COc2ccc(CN[C@@H](CO)C(=O)O)c(OCc3cccc(C#N)c3)c2)cccc1-c1ccccc1 | Active

Tested on: Mus musculus
Experiment: Toxicity in C57BL6 mouse allografted with mouse lewis lung carcinoma cells assessed as reduction body weight at 5 mg/kg, ig for 21 days
Format: organism-based
Details: in vivo, po, 504 h, time 21 day

Row | Structure (SMILES) | Activity
50 | Cc1c(COc2ccc(CN[C@@H](CO)C(=O)O)c(OCc3cccc(C#N)c3)c2)cccc1-c1ccccc1 | Non-Toxic

Tested on: not listed separately
Experiment: Anti-tumor activity against mouse lewis lung carcinoma cells allografted in C57BL6 mouse assessed as reduction in tumor growth at 5 mg/kg, ig for 21 days relative to control
Format: functional
Details: po, 504 h, time 21 day, read-out: TGI

Row | Structure (SMILES) | inhibition in vivo at 5 mg/kg [%]
51 | Cc1c(COc2ccc(CN[C@@H](CO)C(=O)O)c(OCc3cccc(C#N)c3)c2)cccc1-c1ccccc1 | 17.8
